± gives the standard deviation of the averaged measurements.
Key:
Details in all cases: 72 h
Caco-2 [1] = assay: cell viability relative to DMSO; higher = less toxic
Calu-3 [2] = assay: as above
HepG2 [3] = assay: as above
U2OS [4] = assay: as above
Vero E6 [5] = assay: as above
Caco-2 [6] = assay: relative viability EC50 (midpoint between 100% and the lowest measured viability); higher = less toxic
Calu-3 [7] = assay: as above
HepG2 [8] = assay: as above
U2OS [9] = assay: as above
Vero E6 [10] = assay: as above
Caco-2 [11] = assay: drug sensitivity score (DSS) for viability; higher = more toxic; extreme values may be limits of the assay
Calu-3 [12] = assay: as above
HepG2 [13] = assay: as above
U2OS [14] = assay: as above
Vero E6 [15] = assay: as above

Row | Compound | cell viability (Caco-2 [1]; 1 nM) | cell viability (Caco-2 [1]; 10 nM) | cell viability (Caco-2 [1]; 100 nM) | cell viability (Caco-2 [1]; 1000 nM) | cell viability (Caco-2 [1]; 10000 nM) | cell viability (Calu-3 [2]; 1 nM) | cell viability (Calu-3 [2]; 10 nM) | cell viability (Calu-3 [2]; 100 nM) | cell viability (Calu-3 [2]; 1000 nM) | cell viability (Calu-3 [2]; 10000 nM) | cell viability (HepG2 [3]; 1 nM) | cell viability (HepG2 [3]; 10 nM) | cell viability (HepG2 [3]; 100 nM) | cell viability (HepG2 [3]; 1000 nM) | cell viability (HepG2 [3]; 10000 nM) | cell viability (U2OS [4]; 1 nM) | cell viability (U2OS [4]; 10 nM) | cell viability (U2OS [4]; 100 nM) | cell viability (U2OS [4]; 1000 nM) | cell viability (U2OS [4]; 10000 nM) | cell viability (Vero E6 [5]; 1 nM) | cell viability (Vero E6 [5]; 10 nM) | cell viability (Vero E6 [5]; 100 nM) | cell viability (Vero E6 [5]; 1000 nM) | cell viability (Vero E6 [5]; 10000 nM) | relative viability EC50 (Caco-2 [6]) | relative viability EC50 (Calu-3 [7]) | relative viability EC50 (HepG2 [8]) | relative viability EC50 (U2OS [9]) | relative viability EC50 (Vero E6 [10]) | drug sensitivity score (Caco-2 [11]) | drug sensitivity score (Calu-3 [12]) | drug sensitivity score (HepG2 [13]) | drug sensitivity score (U2OS [14]) | drug sensitivity score (Vero E6 [15])
1 | C[C@@H](O)[C@H]1C(=O)N2C(C(=O)O)=C(SCCNC=N)C[C@H]12 [imipenem] | 97.2% | 98.4% | 98.2% | 92.6% | 106% | 88% | 87.6% | 107% | 86.3% | 93.4% | 98.7% | 98.5% | 96.2% | 100% | 107% | 99.1% | 98.2% | 102% | 97.4% | 97.2% | 97.9% | 102% | 89.2% | 100% | 110% | > 10 µM | > 10 µM | > 10 µM | > 10 µM | > 10 µM | 0 | 0 | 0 | 0 | 0
2 | COC(=O)N1CCN(Cc2cccc(NC(=O)Nc3ccc(C)nc3)c2F)CC1 [omecamtiv-mecarbil] | 93% | 89.7% | 95.3% | 96.3% | 87% | 92.4% | 94.4% | 107% | 97.4% | 99.9% | 105% | 96.1% | 100% | 98.5% | 97.1% | 97% | 101% | 93.3% | 99% | 97.4% | 105% | 100% | 104% | 101% | 99.1% | > 10 µM | > 10 µM | > 10 µM | > 10 µM | > 10 µM | 0 | 0 | 0 | 0 | 0
3 | CCCCc1ccc(NS(=O)(=O)c2ccc(F)cc2)cc1 | 94.9% | 87.2% | 98.6% | 93.3% | 88.5% | 93.2% | 87.6% | 100% | 98.5% | 102% | 101% | 114% | 86.6% | 99.4% | 86.5% | 97.4% | 96.2% | 99% | 101% | 100% | 101% | 101% | 99.9% | 99.1% | 96.2% | > 10 µM | > 10 µM | > 10 µM | > 10 µM | > 10 µM | 0 | 0 | 1.6 | 0 | 0
4 | Cc1cccc(-c2[nH]c(C(C)(C)C)nc2-c2ccc3nccnc3c2)n1 | 104% | 98.1% | 104% | 91.1% | 29.8% | 106% | 104% | 109% | 102% | 87.3% | 101% | 95.2% | 103% | 80.5% | 12.9% | 96.8% | 101% | 95% | 89.2% | 79% | 99.3% | 99.4% | 104% | 98.1% | 81.6% | 2.14 µM | > 10 µM | 1.64 µM | > 10 µM | > 10 µM | 5.4 | 0 | 7.9 | 1.3 | 0.7
5 | Cc1c(CN(C)C(=O)/C=C/c2cnc3c(c2)CCC(=O)N3)oc2ccccc12 [AFN-1252] | 95% | 93.1% | 99% | 101% | 97.1% | 103% | 98.5% | 102% | 108% | 98.1% | 110% | 92.6% | 106% | 90.2% | 110% | 97.9% | 101% | 98.5% | 101% | 102% | 94.2% | 87.9% | 93.6% | 91.3% | 97.7% | > 10 µM | > 10 µM | > 10 µM | > 10 µM | > 10 µM | 0 | 0 | 0 | 0 | 0
6 | CC(C)(C)NCC(O)c1ccc(O)c(CO)c1 (stereo not given) [albuterol] | 101 ± 2% | 101 ± 14% | 90.9 ± 2.3% | 96.3 ± 1.5% | 102 ± 7.1% | 98.2 ± 3.3% | 97.2 ± 3.8% | 96.2 ± 6.6% | 103 ± 6% | 103 ± 9.1% | 108 ± 2.9% | 96.1 ± 2.7% | 98.5 ± 15% | 100 ± 14% | 91.6 ± 11% | 101 ± 2.5% | 98.5 ± 4% | 97 ± 2.5% | 97.6 ± 3.7% | 96.2 ± 2.9% | 106 ± 2.5% | 94.8 ± 5.2% | 99.5 ± 3% | 97.8 ± 0.42% | 101 ± 3.8% | > 10 µM | > 10 µM | > 10 µM | > 10 µM | > 10 µM | 0 | 0 | 0.55 ± 0.78 | 0 | 0
7 | COc1ncc(-c2ccc3c(Nc4cc(Oc5cc(F)cc(F)c5)cc(C(=O)O)c4)c(S(=O)(=O)NC4CC4)cnc3c2)c(OC)n1 | 103% | 100% | 85% | 92.2% | 97.5% | 95.3% | 107% | 87.9% | 96.3% | 102% | 97% | 107% | 96.8% | 101% | 85.6% | 104% | 104% | 98.8% | 93.2% | 99.8% | 101% | 101% | 99.9% | 104% | 101% | > 10 µM | > 10 µM | > 10 µM | > 10 µM | > 10 µM | 0 | 0 | 0.2 | 0 | 0
